# Experimental data: ChEMBL document CHEMBL1137166, “A unidirectional crosslinking strategy for HIV-1 protease dimerization inhibitors” (Bioorg Med Chem Lett, 2004)
# Where a SMILES comes first, the peptide text is derived from it. [ ]: non-standard residue; d: D form. The star is where a group is joined. ξ: configuration not given here. Tyr(3-NO2) = N[C@@H](Cc1ccc(O)c([N+](=O)[O-])c1)C(=O)O; C16 diacid = O=C(O)CCCCCCCCCCCCCCC(=O)*; 1Nal = N[C@@H](Cc1cccc2ccccc12)C(=O)O; Cha = N[C@@H](CC1CCCCC1)C(=O)O; Ile(3ξ) = CCC(C)[C@H](N)C(=O)O; aThr = C[C@H](O)[C@H](N)C(=O)O; Fumaroyl = O=C(O)/C=C/C(=O)*; 12Ado = NCCCCCCCCCCCC(=O)O
# Tests used:
# [1] = target: Human immunodeficiency virus type 1 protease (Human immunodeficiency virus 1) (UniProt Q72874); experiment: Percent inhibition against Human immunodeficiency virus-1 protease at the concentration of 100 uM
# [2] = target: T1, Human immunodeficiency virus type 1 protease (Human immunodeficiency virus 1, UniProt Q72874); experiment: Binding activity towards Human immunodeficiency virus-1 protease
# [3] = target: T1, Human immunodeficiency virus type 1 protease; experiment: Inhibitory activity against Human immunodeficiency virus-1 protease
SMILES,inhibition [1] [%],Ki [2] [µM],IC50 [3] [µM]
CCC(C)[C@H](NC(=O)CCCCCCCCCCCNC(=O)[C@@H](NC(=O)[C@@H](N)Cc1ccccc1)C(N)=O)C(=O)N[C@@H](Cc1ccccc1)C(N)=O (stereo partly drawn),35,,
NC(=O)[C@H](Cc1ccc(O)c([N+](=O)[O-])c1)NC(=O)[C@H](CC1CCCCC1)NC(=O)/C=C/C(=O)O,< 20,,
CCC(C)[C@H](NC(=O)CCCCCCCCCCCNC(=O)[C@H](Cc1ccc(O)c([N+](=O)[O-])c1)NC(=O)[C@H](CC1CCCCC1)NC(=O)/C=C/C(=O)O)C(=O)N[C@@H](Cc1ccc(O)c([N+](=O)[O-])c1)C(N)=O (stereo partly drawn) (Fumaroyl-[Cha][Tyr(3-NO2)][12Ado][Ile(3ξ)][Tyr(3-NO2)]-NH2),,222,247
CCC(C)[C@H](NC(=O)CCCCCCCCCCCNC(=O)[C@H](Cc1ccc(O)c([N+](=O)[O-])c1)NC(=O)[C@H](CC1CCCCC1)NC(=O)/C=C/C(=O)O)C(N)=O (stereo partly drawn),,,3.7
CC(C)C[C@H](NC(=O)[C@@H](NC(=O)CCCCCCCCCCCCCCC(=O)N[C@@H](CC(N)=O)C(=O)N[C@@H](Cc1ccccc1)C(=O)O)[C@H](C)O)C(=O)N[C@@H](Cc1ccccc1)C(N)=O ({Phe-Asn-C16 diacid}-[aThr]-Leu-Phe-NH2),,3,5.4
NC(=O)CCCCCCCCCCCNC(=O)[C@H](Cc1ccc(O)c([N+](=O)[O-])c1)NC(=O)[C@H](CC1CCCCC1)NC(=O)/C=C/C(=O)O,,,20
CCC(C)[C@H](NC(=O)CCCCCCCCCCCNC(=O)[C@H](Cc1ccc(O)c([N+](=O)[O-])c1)NC(=O)[C@H](CC1CCCCC1)NC(=O)/C=C/C(=O)O)C(=O)N[C@@H](Cc1ccccc1)C(N)=O (stereo partly drawn) (Fumaroyl-[Cha][Tyr(3-NO2)][12Ado][Ile(3ξ)]F-NH2),,199,327
"CC(C)C[C@H](NC(=O)CCCCCCCCCCCCCCC(=O)N[C@@H](CC(N)=O)C(=O)N[C@@H](Cc1ccccc1)C(=O)O)C(=O)N[C@@H](Cc1ccccc1)C(N)=O (HELM PEPTIDE1{L.F.[am]}|PEPTIDE2{N.F}|CHEM1{[O=C(CCCCCCCCCCCCCCC(=O)[*:2])[*:1]]}$PEPTIDE1,CHEM1,1:R1-1:R1|PEPTIDE2,CHEM1,1:R1-1:R2$$$V2.0)",,,11
CCC(C)[C@H](NC(=O)CCCCCCCCCCCNC(=O)[C@H](Cc1ccc(O)c([N+](=O)[O-])c1)NC(=O)[C@H](CC1CCCCC1)NC(=O)/C=C/C(=O)O)C(=O)N[C@@H](Cc1cccc2ccccc12)C(N)=O (stereo partly drawn) (Fumaroyl-[Cha][Tyr(3-NO2)][12Ado][Ile(3ξ)][1Nal]-NH2),,209,361
CCC(C)[C@H](NC(=O)CCCCCCCCCCCNC(=O)[C@@H](NC(=O)[C@H](Cc1ccccc1)NC(C)=O)C(N)=O)C(=O)N[C@@H](Cc1ccccc1)C(N)=O (stereo partly drawn),15,,
CCC(C)[C@H](NC(=O)CCCCCCCCCCCNC(=O)[C@@H](NC(=O)[C@H](Cc1ccccc1)NC(=O)CCC(=O)O)C(N)=O)C(=O)N[C@@H](Cc1ccccc1)C(N)=O (stereo partly drawn),< 50,,
CCC(C)[C@H](NC(=O)CCCCCCCCCCCNC(=O)[C@@H](NC(=O)[C@@H](Cc1ccccc1)NC(=O)/C=C/C(=O)O)C(N)=O)C(=O)N[C@@H](Cc1ccccc1)C(N)=O (stereo partly drawn),,,18.8
CC[C@H](C)[C@H](NC(=O)[C@H](CCC(N)=O)NC(=O)[C@@H]1CCCN1C(=O)CCCCCCCCCCCCCCC(=O)N[C@@H](CO)C(=O)N[C@H](C(=O)N[C@@H](CC(C)C)C(=O)N[C@@H](CC(N)=O)C(=O)N[C@@H](Cc1ccccc1)C(=O)O)[C@@H](C)O)C(=O)N[C@H](C(=O)N[C@@H](CC(C)C)C(=O)N[C@@H](Cc1c[nH]c2ccccc12)C(=O)O)[C@H](C)O,,0.22,0.35
CCC(C)[C@H](NC(=O)CCCCCCCCCCCNC(=O)[C@@H](NC(=O)[C@H](Cc1ccccc1)NC(=O)/C=C/C(=O)O)C(N)=O)C(=O)N[C@@H](Cc1ccccc1)C(N)=O (stereo partly drawn),,4.9,12
CCC(C)[C@H](NC(=O)CCCCCCCCCCCNC(=O)[C@H](NC(=O)[C@@H](Cc1ccccc1)NC(=O)/C=C/C(=O)O)C(N)=O)C(=O)N[C@@H](Cc1ccccc1)C(N)=O (stereo partly drawn),,,9.7
CCC(C)[C@H](NC(=O)CCCCCCCCCCCNC(=O)CNC(=O)[C@@H](CC(N)=O)NC(=O)[C@H](Cc1ccccc1)NC(=O)/C=C/C(=O)O)C(=O)N[C@@H](Cc1ccccc1)C(N)=O (stereo partly drawn),,,16.8
CCC(C)[C@H](NC(=O)CCCCCCCCCCCNC(=O)[C@H](NC(=O)[C@H](Cc1ccccc1)NC(=O)/C=C/C(=O)O)C(N)=O)C(=O)N[C@@H](Cc1ccccc1)C(N)=O (stereo partly drawn),,,14.2
